Experimental findings from article PMC2791543 (Cancer cell, 2009) are described below.

For assay [1], the system named is de novo pancreatic ductal adenocarcinoma. The experiment in a line: In vivo peptide homing in PDAC mice. The note with it: FAM-labeled peptide, approximately 200 µg, 2 hrs circulation.
In the next assay the test system is PPC1 cells. Put plainly: Inhibition of CRGDK phage binding to PPC1 cells. It counts as cell-based, human.
The next assay deals with αvβ3 integrin (Homo sapiens, UniProt P05106+P06756). The experiment in a line: ELISA affinity measurement on purified αvβ3 integrin. It counts as binding. As to conditions: compared with iRGD. On the technique in general: An ELISA detects its analyte on a solid surface through an enzyme-linked reagent.
αvβ3 integrin, sequence (P06756 31-889 limits assumed): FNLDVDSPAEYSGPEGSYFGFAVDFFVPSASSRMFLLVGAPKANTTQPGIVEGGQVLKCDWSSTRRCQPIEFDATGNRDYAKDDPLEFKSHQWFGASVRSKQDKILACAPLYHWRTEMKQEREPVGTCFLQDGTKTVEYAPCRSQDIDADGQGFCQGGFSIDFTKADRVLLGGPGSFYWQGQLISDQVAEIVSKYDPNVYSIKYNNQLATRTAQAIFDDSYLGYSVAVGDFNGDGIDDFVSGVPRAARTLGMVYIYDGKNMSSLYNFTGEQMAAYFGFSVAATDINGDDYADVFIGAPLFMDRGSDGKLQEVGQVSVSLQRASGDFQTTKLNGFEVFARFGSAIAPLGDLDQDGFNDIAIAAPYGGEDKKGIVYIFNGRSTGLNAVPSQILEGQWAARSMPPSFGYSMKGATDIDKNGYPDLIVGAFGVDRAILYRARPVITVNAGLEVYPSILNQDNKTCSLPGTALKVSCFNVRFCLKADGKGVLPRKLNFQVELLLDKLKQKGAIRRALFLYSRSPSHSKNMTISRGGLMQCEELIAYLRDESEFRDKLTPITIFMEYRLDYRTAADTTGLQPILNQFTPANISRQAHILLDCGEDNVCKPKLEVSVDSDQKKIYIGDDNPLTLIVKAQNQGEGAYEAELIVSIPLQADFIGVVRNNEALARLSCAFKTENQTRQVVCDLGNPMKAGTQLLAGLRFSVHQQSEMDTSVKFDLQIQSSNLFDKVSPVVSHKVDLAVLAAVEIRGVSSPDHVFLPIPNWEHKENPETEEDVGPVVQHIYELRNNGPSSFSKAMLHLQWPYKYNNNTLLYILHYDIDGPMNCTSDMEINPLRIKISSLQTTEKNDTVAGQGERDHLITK
αvβ3 integrin, sequence (P06756 891-1048 limits assumed): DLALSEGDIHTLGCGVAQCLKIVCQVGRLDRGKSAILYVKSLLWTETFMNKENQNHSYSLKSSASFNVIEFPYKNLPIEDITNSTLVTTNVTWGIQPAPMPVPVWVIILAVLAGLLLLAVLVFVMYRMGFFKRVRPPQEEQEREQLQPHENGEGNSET
αvβ3 integrin, sequence (P05106 27-788): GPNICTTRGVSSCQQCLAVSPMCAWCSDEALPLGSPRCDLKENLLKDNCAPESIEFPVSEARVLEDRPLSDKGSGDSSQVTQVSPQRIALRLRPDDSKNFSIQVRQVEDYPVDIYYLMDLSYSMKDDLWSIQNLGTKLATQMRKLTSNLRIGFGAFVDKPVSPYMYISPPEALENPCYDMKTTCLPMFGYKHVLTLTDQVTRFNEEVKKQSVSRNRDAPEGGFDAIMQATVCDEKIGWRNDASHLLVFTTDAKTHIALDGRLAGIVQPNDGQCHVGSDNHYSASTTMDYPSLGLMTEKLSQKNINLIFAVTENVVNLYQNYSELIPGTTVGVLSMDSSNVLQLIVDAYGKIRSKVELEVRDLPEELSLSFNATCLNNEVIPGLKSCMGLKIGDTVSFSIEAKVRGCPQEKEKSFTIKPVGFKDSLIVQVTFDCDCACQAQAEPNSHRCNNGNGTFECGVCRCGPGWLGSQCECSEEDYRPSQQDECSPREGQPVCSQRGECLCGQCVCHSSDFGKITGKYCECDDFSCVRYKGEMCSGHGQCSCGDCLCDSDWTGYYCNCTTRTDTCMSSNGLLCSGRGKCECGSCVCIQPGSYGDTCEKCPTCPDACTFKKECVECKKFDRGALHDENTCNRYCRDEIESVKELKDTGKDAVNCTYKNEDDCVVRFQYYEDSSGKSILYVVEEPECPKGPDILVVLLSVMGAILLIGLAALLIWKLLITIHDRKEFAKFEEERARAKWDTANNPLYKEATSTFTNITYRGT
A further assay concerns the target αvβ5 integrin (Homo sapiens, UniProt P06756+P18084). Put plainly: ELISA affinity measurement on purified αvβ5 integrin. Type of assay: binding. The note with it: compared with iRGD.
The target in another assay is T1, Neuropilin-1 (Rattus norvegicus, UniProt Q9QWJ9).
T1 chain: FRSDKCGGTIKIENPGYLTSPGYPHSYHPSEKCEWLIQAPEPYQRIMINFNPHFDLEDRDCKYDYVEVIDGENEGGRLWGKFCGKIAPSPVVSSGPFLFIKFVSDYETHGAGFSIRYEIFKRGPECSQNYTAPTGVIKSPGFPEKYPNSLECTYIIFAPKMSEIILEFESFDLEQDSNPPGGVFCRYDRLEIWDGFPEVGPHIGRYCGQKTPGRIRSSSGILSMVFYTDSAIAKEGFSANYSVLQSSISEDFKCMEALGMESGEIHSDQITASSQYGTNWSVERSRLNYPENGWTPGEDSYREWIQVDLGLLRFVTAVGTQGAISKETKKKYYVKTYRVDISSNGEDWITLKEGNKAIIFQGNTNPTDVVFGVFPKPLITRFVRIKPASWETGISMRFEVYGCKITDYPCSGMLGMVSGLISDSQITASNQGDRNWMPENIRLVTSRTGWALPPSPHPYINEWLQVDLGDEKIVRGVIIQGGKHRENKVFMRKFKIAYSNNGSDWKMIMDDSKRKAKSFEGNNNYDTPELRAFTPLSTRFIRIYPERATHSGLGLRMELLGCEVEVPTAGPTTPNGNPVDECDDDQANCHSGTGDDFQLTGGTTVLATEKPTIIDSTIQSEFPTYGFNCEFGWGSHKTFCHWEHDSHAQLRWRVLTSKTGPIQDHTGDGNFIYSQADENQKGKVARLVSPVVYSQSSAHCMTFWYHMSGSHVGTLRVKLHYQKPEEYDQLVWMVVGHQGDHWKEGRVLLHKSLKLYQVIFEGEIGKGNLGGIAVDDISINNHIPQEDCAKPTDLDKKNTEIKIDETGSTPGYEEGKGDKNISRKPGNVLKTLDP
The experiment in a line: competition ELISA.

αvβ5 integrin, sequence (P06756 31-889 limits assumed): as the sequence (P06756 31-889 limits assumed) above
αvβ5 integrin, sequence (P06756 891-1048 limits assumed): as the sequence (P06756 891-1048 limits assumed) above
αvβ5 integrin, sequence (P18084 24-799): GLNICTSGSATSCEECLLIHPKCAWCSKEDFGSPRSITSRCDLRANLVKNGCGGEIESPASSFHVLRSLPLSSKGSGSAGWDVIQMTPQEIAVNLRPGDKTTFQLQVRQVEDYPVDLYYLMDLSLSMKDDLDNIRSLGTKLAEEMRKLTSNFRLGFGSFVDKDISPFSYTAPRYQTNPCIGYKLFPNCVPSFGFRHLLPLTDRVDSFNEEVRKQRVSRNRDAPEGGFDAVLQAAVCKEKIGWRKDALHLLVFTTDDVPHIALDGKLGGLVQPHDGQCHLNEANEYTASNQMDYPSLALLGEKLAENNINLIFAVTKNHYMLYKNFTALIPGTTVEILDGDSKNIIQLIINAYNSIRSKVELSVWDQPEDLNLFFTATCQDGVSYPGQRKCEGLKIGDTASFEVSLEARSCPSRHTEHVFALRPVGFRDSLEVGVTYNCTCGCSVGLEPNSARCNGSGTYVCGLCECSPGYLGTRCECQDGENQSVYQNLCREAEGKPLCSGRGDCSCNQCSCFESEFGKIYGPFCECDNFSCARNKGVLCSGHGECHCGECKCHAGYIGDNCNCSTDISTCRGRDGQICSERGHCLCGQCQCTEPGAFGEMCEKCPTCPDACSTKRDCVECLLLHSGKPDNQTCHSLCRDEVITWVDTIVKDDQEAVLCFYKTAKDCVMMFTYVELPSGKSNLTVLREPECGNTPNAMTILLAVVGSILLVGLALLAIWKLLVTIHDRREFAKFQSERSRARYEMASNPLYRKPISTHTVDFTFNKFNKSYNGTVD

In the case of CRGEKGPDC [iRGE], in assay [1], the “tumor fluorescence after i.v. injection” value is listed as “minimal tumor fluorescence”.

Take RPARPAR: the “inhibition of CRGDK phage binding to PPC1 cells by peptide” value in the assay with PPC1 cells was “inhibited”.

For CRGDC, at αvβ3 integrin, the “affinity for αvβ3, by ability to block iRGD binding” value is “in the same range”. The “affinity for αvβ5, by ability to block iRGD binding” value on αvβ5 integrin is “in the same range”.

For orientation: Kd means the constant that tells how readily two partners part at equilibrium. A low value points to tighter binding. The molecule CRGDK had a dissociation constant (Kd) in the assay with Neuropilin-1 of 1400 nM.
